Columns and labels:
LDLr-/- mice [1] = assay: Serum cholesterol, triglyceride and lipoprotein concentrations in diet-fed mice (enzymatic assay kits); format: in vivo; conditions: for total serum triglyceride concentration: end of study; for very low density lipoprotein and LDL cholesterol concentrations / total serum cholesterol concentration: male and female mice; for very low density lipoprotein and LDL cholesterol concentrations: compared to control mice; for total serum cholesterol concentration: sucrose vs standard murine and TAG diets, TAG vs sucrose-fed
From the text: Low-density lipoprotein receptor male and female mice (LDLr^-/-) that were approximately eight weeks old were fed either a standard murine diet (“control”), a diet enriched with sucrose, or a diet enriched with TAG for sixteen weeks. The diets enriched with sucrose or TAG contained equivalents amounts (g/kg) of protein, fat and carbohydrate, although due to the differences in energy content between sucrose (˜4.0 kcal/g) and TAG (˜1.5 kcal/g), the TAG-containing diet provided relatively more calories from fat and protein. Before the sixteen week feeding period, sucrose and TAG were introduced to the experimental mice gradually over a three week period, using an increasing ratio of sucrose or TAG diet to the standard murine diet.
Total serum cholesterol and plasma triglyceride concentrations were determined for the individual mice at the end of the study using enzymatic assay kits (Wako Pure Chemical, Richmond, Va.).

LDLr-/- mice [2] = assay: Body weight and adipose tissue characteristics in hypercholesterolemic mice fed sucrose- or TAG-enriched diet for sixteen weeks; format: in vivo; conditions: for macrophage positive F4/80 immunostaining in adipose sections / adipocyte size: study end point; for body weight: enriched diet, sixteen weeks; for development of obesity (weight gain, adiposity, adipocyte hypertrophy): overall study conclusion
From the text: Low-density lipoprotein receptor male and female mice (LDLr^-/-) that were approximately eight weeks old were fed either a standard murine diet (“control”), a diet enriched with sucrose, or a diet enriched with TAG for sixteen weeks. The diets enriched with sucrose or TAG contained equivalents amounts (g/kg) of protein, fat and carbohydrate, although due to the differences in energy content between sucrose (˜4.0 kcal/g) and TAG (˜1.5 kcal/g), the TAG-containing diet provided relatively more calories from fat and protein. Before the sixteen week feeding period, sucrose and TAG were introduced to the experimental mice gradually over a three week period, using an increasing ratio of sucrose or TAG diet to the standard murine diet. Food intake was measured for the first four weeks of the sixteen week period and the body weight of the mice was measured weekly. […] At the study end point, retroperitoneal and epidydimal fat was dissected out of the body and stored in formalin and subsequently embedded in paraffin for examination of morphology and immunostaining. Total adipose tissue mass was increased in both male and female mice fed the diet enriched with sucrose when compared to mice fed murine or TAG-enriched diets. For characterization of adipocyte morphology, adipose tissue sections were deparrafinized and stained using hematoxylin and eosin and then analyzed using Image Pro Plus 5.1 (Media Cybernetics, Silver Spring, Md.). […] Macrophage positive F4/80 immunostaining was detected in adipose section from mice fed a sucrose-enriched diet but not in those fed standard murine or TAG-enriched diets.

LDLr-/- mice [3] = assay: Atherosclerosis by en face lesion surface area, immunohistochemistry, infrared microscopy and Gomori Trichome staining; format: in vivo; conditions: for concentration of lipids in atherosclerotic lesions: infrared microscopy of aortic lesions
From the text: Low-density lipoprotein receptor male and female mice (LDLr^-/-) that were approximately eight weeks old were fed either a standard murine diet (“control”), a diet enriched with sucrose, or a diet enriched with TAG for sixteen weeks. The diets enriched with sucrose or TAG contained equivalents amounts (g/kg) of protein, fat and carbohydrate, although due to the differences in energy content between sucrose (˜4.0 kcal/g) and TAG (˜1.5 kcal/g), the TAG-containing diet provided relatively more calories from fat and protein. Before the sixteen week feeding period, sucrose and TAG were introduced to the experimental mice gradually over a three week period, using an increasing ratio of sucrose or TAG diet to the standard murine diet. At the study end point, mice were exsanguinated by perfusion through the left ventricle. Aortic tissues from the heart to the […] bifurcation were dissected and fixed overnight in 4% paraformaldehyde made with phosphate buffered solution (“PBS”) and then stored in PBS. Atherosclerosis was quantified by en face analysis of lesion surface area as detailed in Henriques, T A, et al., “Orchidectomy, but not ovariectomy, regulates angiotensin II-induced vascular diseases in apolipoprotein E-deficient mice,” Endocrinology, 145: 3866-3872 (2004). Atherosclerotic lesions were quantified by two independent observers. […] Macrophage infiltration into atherosclerotic areas was assessed using immunohistochemistry staining. […] Collagen may strengthen the fibrous caps in lipid-filled atheromas, preventing rupture.

[4] = humans; cited from earlier work
[5] = system: human patients with type 2 diabetes; assay: Six-month oral TAG dosing study, HbA1c, serum triglycerides, LDL and HDL; format: in vivo; conditions: for average reduction in serum triglycerides / average reduction in HbA1c from the HbA1c of the 2.5 g group: after six months; for decrease in average serum triglycerides from baseline: all TAG-consuming patients
Protocol: Thirty-eight human patients with type 2 diabetes were administered one of three concentrations of TAG orally with meals. […] The treatment duration was six months and patients were randomized to one of the three doses. […] Patients also had to go through an eight week run-in period in which they were on a weight-maintaining diet and a daily exercise program under the supervision of the investigator prior to receiving their TAG dose. Patients with a current or recent history of treatment with any oral or injectable anti-diabetic treatment, as well as patients having one or more episodes of severe hypoglycemia within six months prior to entry into the study, were excluded from the study. Blood samples were taken throughout the experiment and levels of HbAc1, serum triglycerides, LDLs and HDLs were measured.

SMILES: O=C(CO)[C@@H](O)[C@@H](O)[C@H](O)CO [TAG, (3S,4S,5R)-1,3,4,5,6-pentahydroxy-hexan-2-one]
- total serum triglyceride concentration (LDLr-/- mice [1]; female mice): 54 ± 8 mg/dL
- very low density lipoprotein and LDL cholesterol concentrations (LDLr-/- mice [1]): only slightly elevated
- total serum cholesterol concentration (LDLr-/- mice [1]): decreased
- total serum triglyceride concentration (LDLr-/- mice [1]; male mice): 162 ± 29 mg/dL
- macrophage positive F4/80 immunostaining in adipose sections (LDLr-/- mice [2]): not
- body weight (LDLr-/- mice [2]; female LDLr-/- mice): 24 ± 1 g
- adipocyte size (LDLr-/- mice [2]; female mice): 31±1 μm
- body weight (LDLr-/- mice [2]; male LDLr-/- mice): 27 ± 0 g
- adipocyte size (LDLr-/- mice [2]; male mice): 79±3 μm
- development of obesity (weight gain, adiposity, adipocyte hypertrophy) (LDLr-/- mice [2]): did not promote substantial weight gain, enhanced adiposity or adipocyte hypertrophy
- concentration of collagen in atherosclerotic lesions (LDLr-/- mice [3]; Gomori Trichome staining, compared to sucrose-fed mice): higher concentration
- rate of atherosclerosis compared to control mice (LDLr-/- mice [3]; female mice): slightly higher
- concentration of lipids in atherosclerotic lesions (LDLr-/- mice [3]): intermediate amount
- amount of atherosclerosis compared to control mice (LDLr-/- mice [3]; male mice): did not exhibit a significantly different amount
- fraction of ingested substance absorbed into the bloodstream [4]: about 25%
- average improvement of LDL:HDL ratio ([5]; 2.5 g and 5 g groups): 0.3
- average reduction in serum triglycerides ([5]; 2.5 g group): 22.2 mg/dL
- decrease in LDL levels ([5]; 2.5 g group, end of the first month): about 12.3 mg/dl
- average reduction in HbA1c from the HbA1c of the 2.5 g group ([5]; 5 g group): 0.05%
- average reduction in serum triglycerides ([5]; 5 g group): 96.8 mg/dL
- decrease in LDL levels ([5]; 5 g group, end of the first month): about 23.8 mg/dl
- average reduction in HbA1c from the HbA1c of the 2.5 g group ([5]; 7.5 g group): 0.3%
- average reduction in serum triglycerides ([5]; 7.5 g group): 2.8 mg/dL
- decrease in average serum triglycerides from baseline ([5]; end of six months): about 41 mg/dl
- decrease in average serum triglycerides from baseline ([5]; end of the first month): about 59 mg/dl
- average decrease in serum LDL ([5]; all patients, end of the first month): about 13 mg/dl
- serum HDL change ([5]; end of the first month): essentially unchanged

SMILES: OC[C@H]1O[C@@](CO)(O[C@H]2O[C@H](CO)[C@@H](O)[C@H](O)[C@H]2O)[C@@H](O)[C@@H]1O [sucrose, reference compound]
- total serum triglyceride concentration (LDLr-/- mice [1]; female mice): 326 ± 37 mg/dL
- very low density lipoprotein and LDL cholesterol concentrations (LDLr-/- mice [1]): significantly elevated
- total serum cholesterol concentration (LDLr-/- mice [1]): markedly increased
- total serum triglyceride concentration (LDLr-/- mice [1]; male mice): 822 ± 148 mg/dL
- macrophage positive F4/80 immunostaining in adipose sections (LDLr-/- mice [2]): detected
- body weight (LDLr-/- mice [2]; female LDLr-/- mice): 31 ± 1 g
- adipocyte size (LDLr-/- mice [2]; female mice): 50±1 μm
- body weight (LDLr-/- mice [2]; male LDLr-/- mice): 40 ± 2 g
- total adipose tissue mass (LDLr-/- mice [2]; male and female mice, compared to murine or TAG-enriched diets): increased
- adipocyte size (LDLr-/- mice [2]; male mice): 83±3 μm
- development of obesity (weight gain, adiposity, adipocyte hypertrophy) (LDLr-/- mice [2]): promotes the development of obesity
- macrophage infiltration and lesion size in aortic roots (LDLr-/- mice [3]; immunohistochemistry, compared to TAG-fed mice): larger degree of macrophage infiltration and larger lesions
- concentration of lipids in atherosclerotic lesions (LDLr-/- mice [3]): highest concentration
- number and size of atherosclerotic lesions in aortic roots (LDLr-/- mice [3]; male and female mice, compared to TAG-fed mice): greater number and size
- atherosclerotic surface area (LDLr-/- mice [3]; male and female mice, compared to control and TAG-enriched diet): striking increase
